# Active and inactive are the calls of the source. No cut-off for these calls is given here.
# Columns and labels:
# [1] = biological target: 5-hydroxytryptamine receptor 2A (Homo sapiens, UniProt P28223); assay: GPCRScan assay: inhibition of 5-HT2A; set-up: radioligand conc. used [nm] 1.2 – 2.4, parental cells HEKT
# Rattus norvegicus = organism: Rattus norvegicus; assay: Inhibition of Rolipram at 10 µM in the Eurofins-Panlabs radioligand binding assay (Eurofins_assay_268811); format: protein assay; set-up: ligand concentration 1.8 nM; details: Compound concentration 10.0 uM
# [2] = biological target: Receptor-interacting serine/threonine-protein kinase 1 (Mus musculus, UniProt Q60855); assay: TR-FRET (mouse RIPK1)
# [3] = biological target: Alpha-1B adrenergic receptor (Homo sapiens) (UniProt P35368); assay: Adrenergic alpha1B Eurofins-Panlabs radioligand binding assay; set-up: ligand concentration 0.2 nM; details: Compound concentration 10.0 uM
# [4] = biological target: Cyclin-dependent kinase 1 (Homo sapiens, UniProt P06493); assay: CDC2 [CDK1(CDK1CGS1)] Takeda global kinase panel
# [5] = biological target: Cyclin-dependent kinase 13 (Homo sapiens, UniProt Q14004); assay: CHED(CD13PHS1) Takeda global kinase panel
# [6] = biological target: Cyclin-dependent kinase 4 (Homo sapiens, UniProt P11802); assay: CDK4(CDK4CGS1) Takeda global kinase panel
# [7] = biological target: Tyrosine-protein kinase CSK (Homo sapiens, UniProt P41240); assay: CSK(CSK1LGF1) Takeda global kinase panel
# [8] = biological target: Casein kinase I isoform alpha (Homo sapiens, UniProt P48729); assay: CK1alpha(C1A1PHY1) Takeda global kinase panel
# [9] = biological target: Casein kinase I isoform alpha-like (Homo sapiens, UniProt Q8N752); assay: CK1alpha2(C1ALLGI5) Takeda global kinase panel
# [10] = biological target: Casein kinase I isoform gamma-2 (Homo sapiens, UniProt P78368); assay: CK1gamma2(C1G2LGI1) Takeda global kinase panel
# [11] = biological target: Death-associated protein kinase 2 (Homo sapiens, UniProt Q9UIK4); assay: DAPK2(DAP2LGF1) Takeda global kinase panel
# Ephrin type-B receptor 1 = Ephrin type-B receptor 1 (Homo sapiens, UniProt P54762); assay: EphB1(EPB1LGY1) Takeda global kinase panel
# [12] = biological target: Receptor tyrosine-protein kinase erbB-4 (Homo sapiens, UniProt Q15303); assay: HER4(ERB4CGF1) Takeda global kinase panel
# [13] = biological target: Serine/threonine-protein kinase/endoribonuclease IRE1 (Homo sapiens, UniProt O75460); assay: IRE1(ERN1PHY1) Takeda global kinase panel
# Rhodopsin kinase GRK1 = Rhodopsin kinase GRK1 (Homo sapiens, UniProt Q15835); assay: RHODK [GRK1(GRK1LGA1)] Takeda global kinase panel
# [14] = biological target: G protein-coupled receptor kinase 6 (Homo sapiens, UniProt P43250); assay: GRK6(GRK6LGP1) Takeda global kinase panel
# [15] = biological target: Inhibitor of nuclear factor kappa-B kinase subunit beta (Homo sapiens, UniProt O14920); assay: IKKbeta(IKBBLHY1) Takeda global kinase panel
# [16] = biological target: Serine/threonine-protein kinase LATS1 (Homo sapiens, UniProt O95835); assay: LATS1(LAT1LGRJ) Takeda global kinase panel
# [17] = biological target: Serine/threonine-protein kinase LATS2 (Homo sapiens, UniProt Q9NRM7); assay: LATS2(LAT2LGY1) Takeda global kinase panel
# [18] = biological target: Mitogen-activated protein kinase kinase kinase 5 (Homo sapiens, UniProt Q99683); assay: ASK [MAP3K5(M3K5LGA1)] Takeda global kinase panel
# [19] = biological target: MAP kinase-activated protein kinase 5 (Homo sapiens, UniProt Q8IW41); assay: MAPKAPK5(MPK5LGN1) Takeda global kinase panel
# [20] = biological target: Microtubule-associated serine/threonine-protein kinase 3 (Homo sapiens, UniProt O60307); assay: MAST3(MAS3LGE1) Takeda global kinase panel
# [21] = biological target: NT-3 growth factor receptor (Homo sapiens, UniProt Q16288); assay: TRKC(NTR3LGN1) Takeda global kinase panel
# [22] = biological target: Serine/threonine-protein kinase PAK 6 (Homo sapiens, UniProt Q9NQU5); assay: PAK6(PAK6CGY1) Takeda global kinase panel
# [23] = biological target: Serine/threonine-protein kinase PLK4 (Homo sapiens, UniProt O00444); assay: PLK4(PLK4LGF1) Takeda global kinase panel
# [24] = biological target: Protein kinase C delta type (Homo sapiens, UniProt Q05655); assay: PKCdelta(PRKDPFP1) Takeda global kinase panel
# [25] = biological target: Protein kinase C zeta type (Homo sapiens, UniProt Q05513); assay: PKCzeta(PRKZLGP1) Takeda global kinase panel
# [26] = biological target: Protein-tyrosine kinase 2-beta (Homo sapiens, UniProt Q14289); assay: PYK2(PT2BLHF1) Takeda global kinase panel
# [27] = biological target: Rho-associated protein kinase 1 (Homo sapiens, UniProt Q13464); assay: ROCK1(ROC1LGY1) Takeda global kinase panel
# [28] = biological target: Serine/threonine-protein kinase Sgk3 (Homo sapiens, UniProt Q96BR1); assay: SGK3(SGK3LGY1) Takeda global kinase panel
# [29] = biological target: Tyrosine-protein kinase Srms (Homo sapiens, UniProt Q9H3Y6); assay: Srm(SRMSLGY1) Takeda global kinase panel
# [30] = biological target: STE20/SPS1-related proline-alanine-rich protein kinase (Homo sapiens, UniProt Q9UEW8); assay: STLK3(ST39LGRJ) Takeda global kinase panel
# TGF-beta receptor type-2 = TGF-beta receptor type-2 (Homo sapiens, UniProt P37173); assay: TGFbetaR2(TGF2LGY1) Takeda global kinase panel
# Activated CDC42 kinase 1 = Activated CDC42 kinase 1 (Homo sapiens, UniProt Q07912); assay: Ack(TNK2LGF1) Takeda global kinase panel
# Wee1-like protein kinase = Wee1-like protein kinase (Homo sapiens, UniProt P30291); assay: Wee1(WEE1LGF1) Takeda global kinase panel
# [31] = biological target: Bromodomain-containing protein 4 (Homo sapiens, UniProt O60885); assay: BRD4(BRD4LGRC) Takeda global kinase panel
# [32] = biological target: 5-hydroxytryptamine receptor 2C (Homo sapiens) (UniProt P28335); details: Compound concentration 10.0 uM
# [33] = biological target: D(3) dopamine receptor (Homo sapiens) (UniProt P35462); details: Compound concentration 10.0 uM
# [34] = biological target: D(4) dopamine receptor (Homo sapiens) (UniProt P21917); details: Compound concentration 10.0 uM
# [35] = biological target: Muscarinic acetylcholine receptor M3 (Homo sapiens) (UniProt P20309); details: Compound concentration 10.0 uM
# [36] = biological target: Muscarinic acetylcholine receptor M5 (Homo sapiens) (UniProt P08912); details: Compound concentration 10.0 uM
# [37] = biological target: Alpha-1D adrenergic receptor (Homo sapiens) (UniProt P25100); details: Compound concentration 10.0 uM
# [38] = biological target: Histamine H2 receptor (Homo sapiens) (UniProt P25021); details: Compound concentration 10.0 uM
# [39] = biological target: Mu-type opioid receptor (Homo sapiens) (UniProt P35372); details: Compound concentration 10.0 uM
# [40] = biological target: Sodium-dependent dopamine transporter (Homo sapiens) (UniProt Q01959); details: Compound concentration 10.0 uM
# Sequence of 5-hydroxytryptamine receptor 2A (P28223 whole entry): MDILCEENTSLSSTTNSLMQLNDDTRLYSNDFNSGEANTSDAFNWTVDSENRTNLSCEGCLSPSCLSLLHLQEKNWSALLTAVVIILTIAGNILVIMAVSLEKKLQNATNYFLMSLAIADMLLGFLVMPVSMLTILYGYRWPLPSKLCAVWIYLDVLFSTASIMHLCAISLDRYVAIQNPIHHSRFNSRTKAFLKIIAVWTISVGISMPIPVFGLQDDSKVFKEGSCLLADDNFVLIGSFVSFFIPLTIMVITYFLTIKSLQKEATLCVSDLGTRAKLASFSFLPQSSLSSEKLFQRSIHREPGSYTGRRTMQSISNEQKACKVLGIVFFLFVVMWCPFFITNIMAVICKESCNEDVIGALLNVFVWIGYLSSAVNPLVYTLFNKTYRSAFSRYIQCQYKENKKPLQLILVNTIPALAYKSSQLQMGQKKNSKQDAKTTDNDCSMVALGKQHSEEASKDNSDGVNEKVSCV
# Sequence of TGF-beta receptor type-2 (P37173 whole entry): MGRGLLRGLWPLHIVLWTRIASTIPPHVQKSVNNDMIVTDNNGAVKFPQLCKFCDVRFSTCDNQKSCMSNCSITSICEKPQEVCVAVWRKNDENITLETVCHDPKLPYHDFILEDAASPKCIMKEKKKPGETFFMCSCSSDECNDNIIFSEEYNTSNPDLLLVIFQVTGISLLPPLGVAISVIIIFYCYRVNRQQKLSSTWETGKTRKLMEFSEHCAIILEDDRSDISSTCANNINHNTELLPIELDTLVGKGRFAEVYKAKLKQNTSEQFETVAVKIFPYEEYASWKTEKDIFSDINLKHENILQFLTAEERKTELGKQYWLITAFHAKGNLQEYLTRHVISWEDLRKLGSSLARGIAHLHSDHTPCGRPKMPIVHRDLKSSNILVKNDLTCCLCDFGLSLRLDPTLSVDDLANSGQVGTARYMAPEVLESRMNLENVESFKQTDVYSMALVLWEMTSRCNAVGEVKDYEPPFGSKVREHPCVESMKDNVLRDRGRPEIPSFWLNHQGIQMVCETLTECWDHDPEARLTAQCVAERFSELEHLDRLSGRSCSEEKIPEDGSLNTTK
# Sequence of G protein-coupled receptor kinase 6 (P43250 whole entry): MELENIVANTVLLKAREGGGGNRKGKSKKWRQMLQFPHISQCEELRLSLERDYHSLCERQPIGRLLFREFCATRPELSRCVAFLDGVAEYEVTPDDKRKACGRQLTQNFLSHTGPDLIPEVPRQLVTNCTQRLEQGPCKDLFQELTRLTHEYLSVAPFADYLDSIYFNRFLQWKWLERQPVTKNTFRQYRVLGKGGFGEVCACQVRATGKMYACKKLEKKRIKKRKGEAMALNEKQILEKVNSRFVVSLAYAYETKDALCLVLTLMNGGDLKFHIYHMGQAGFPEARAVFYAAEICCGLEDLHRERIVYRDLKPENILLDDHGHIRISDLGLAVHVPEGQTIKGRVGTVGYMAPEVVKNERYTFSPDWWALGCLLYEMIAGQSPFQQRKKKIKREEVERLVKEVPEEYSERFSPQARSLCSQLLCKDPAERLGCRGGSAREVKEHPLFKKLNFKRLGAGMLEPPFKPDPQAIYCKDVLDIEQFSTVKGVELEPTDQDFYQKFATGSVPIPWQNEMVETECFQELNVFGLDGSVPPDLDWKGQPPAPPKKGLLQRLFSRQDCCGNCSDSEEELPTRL
# Sequence of Receptor tyrosine-protein kinase erbB-4 (Q15303 whole entry): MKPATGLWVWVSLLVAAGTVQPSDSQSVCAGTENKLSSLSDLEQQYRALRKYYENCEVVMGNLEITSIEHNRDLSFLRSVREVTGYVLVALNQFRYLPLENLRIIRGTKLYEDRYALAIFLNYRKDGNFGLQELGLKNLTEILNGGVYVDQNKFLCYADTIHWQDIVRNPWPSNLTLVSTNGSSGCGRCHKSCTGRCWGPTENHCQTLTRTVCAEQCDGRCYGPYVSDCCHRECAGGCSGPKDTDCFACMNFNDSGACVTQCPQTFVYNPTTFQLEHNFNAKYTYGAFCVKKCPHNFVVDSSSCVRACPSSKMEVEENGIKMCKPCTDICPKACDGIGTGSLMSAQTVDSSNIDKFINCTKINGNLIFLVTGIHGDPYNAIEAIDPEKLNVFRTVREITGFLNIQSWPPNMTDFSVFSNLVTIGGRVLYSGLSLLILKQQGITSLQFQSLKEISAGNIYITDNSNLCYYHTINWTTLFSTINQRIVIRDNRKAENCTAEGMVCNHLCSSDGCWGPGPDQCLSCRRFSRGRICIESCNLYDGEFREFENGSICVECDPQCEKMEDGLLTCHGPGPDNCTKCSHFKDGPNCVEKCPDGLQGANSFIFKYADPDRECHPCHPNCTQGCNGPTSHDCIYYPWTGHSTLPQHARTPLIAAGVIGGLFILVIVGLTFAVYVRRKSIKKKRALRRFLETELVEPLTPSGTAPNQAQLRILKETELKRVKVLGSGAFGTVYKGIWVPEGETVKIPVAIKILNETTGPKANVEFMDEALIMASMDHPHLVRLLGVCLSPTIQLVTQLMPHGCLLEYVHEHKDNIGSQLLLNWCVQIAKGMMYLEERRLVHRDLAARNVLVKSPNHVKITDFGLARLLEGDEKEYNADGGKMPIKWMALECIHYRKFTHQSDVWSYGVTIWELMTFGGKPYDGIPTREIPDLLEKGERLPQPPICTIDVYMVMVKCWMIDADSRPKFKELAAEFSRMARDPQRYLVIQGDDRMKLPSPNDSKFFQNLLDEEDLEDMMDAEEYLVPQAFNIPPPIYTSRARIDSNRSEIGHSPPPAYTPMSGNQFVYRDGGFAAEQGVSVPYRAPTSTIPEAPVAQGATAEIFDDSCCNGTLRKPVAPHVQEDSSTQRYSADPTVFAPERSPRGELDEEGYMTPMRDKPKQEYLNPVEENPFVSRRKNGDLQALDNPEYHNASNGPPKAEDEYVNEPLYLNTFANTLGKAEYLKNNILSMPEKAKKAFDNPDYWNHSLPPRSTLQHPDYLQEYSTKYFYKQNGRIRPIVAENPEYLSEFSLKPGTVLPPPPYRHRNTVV
# Sequence of Cyclin-dependent kinase 13 (Q14004 whole entry): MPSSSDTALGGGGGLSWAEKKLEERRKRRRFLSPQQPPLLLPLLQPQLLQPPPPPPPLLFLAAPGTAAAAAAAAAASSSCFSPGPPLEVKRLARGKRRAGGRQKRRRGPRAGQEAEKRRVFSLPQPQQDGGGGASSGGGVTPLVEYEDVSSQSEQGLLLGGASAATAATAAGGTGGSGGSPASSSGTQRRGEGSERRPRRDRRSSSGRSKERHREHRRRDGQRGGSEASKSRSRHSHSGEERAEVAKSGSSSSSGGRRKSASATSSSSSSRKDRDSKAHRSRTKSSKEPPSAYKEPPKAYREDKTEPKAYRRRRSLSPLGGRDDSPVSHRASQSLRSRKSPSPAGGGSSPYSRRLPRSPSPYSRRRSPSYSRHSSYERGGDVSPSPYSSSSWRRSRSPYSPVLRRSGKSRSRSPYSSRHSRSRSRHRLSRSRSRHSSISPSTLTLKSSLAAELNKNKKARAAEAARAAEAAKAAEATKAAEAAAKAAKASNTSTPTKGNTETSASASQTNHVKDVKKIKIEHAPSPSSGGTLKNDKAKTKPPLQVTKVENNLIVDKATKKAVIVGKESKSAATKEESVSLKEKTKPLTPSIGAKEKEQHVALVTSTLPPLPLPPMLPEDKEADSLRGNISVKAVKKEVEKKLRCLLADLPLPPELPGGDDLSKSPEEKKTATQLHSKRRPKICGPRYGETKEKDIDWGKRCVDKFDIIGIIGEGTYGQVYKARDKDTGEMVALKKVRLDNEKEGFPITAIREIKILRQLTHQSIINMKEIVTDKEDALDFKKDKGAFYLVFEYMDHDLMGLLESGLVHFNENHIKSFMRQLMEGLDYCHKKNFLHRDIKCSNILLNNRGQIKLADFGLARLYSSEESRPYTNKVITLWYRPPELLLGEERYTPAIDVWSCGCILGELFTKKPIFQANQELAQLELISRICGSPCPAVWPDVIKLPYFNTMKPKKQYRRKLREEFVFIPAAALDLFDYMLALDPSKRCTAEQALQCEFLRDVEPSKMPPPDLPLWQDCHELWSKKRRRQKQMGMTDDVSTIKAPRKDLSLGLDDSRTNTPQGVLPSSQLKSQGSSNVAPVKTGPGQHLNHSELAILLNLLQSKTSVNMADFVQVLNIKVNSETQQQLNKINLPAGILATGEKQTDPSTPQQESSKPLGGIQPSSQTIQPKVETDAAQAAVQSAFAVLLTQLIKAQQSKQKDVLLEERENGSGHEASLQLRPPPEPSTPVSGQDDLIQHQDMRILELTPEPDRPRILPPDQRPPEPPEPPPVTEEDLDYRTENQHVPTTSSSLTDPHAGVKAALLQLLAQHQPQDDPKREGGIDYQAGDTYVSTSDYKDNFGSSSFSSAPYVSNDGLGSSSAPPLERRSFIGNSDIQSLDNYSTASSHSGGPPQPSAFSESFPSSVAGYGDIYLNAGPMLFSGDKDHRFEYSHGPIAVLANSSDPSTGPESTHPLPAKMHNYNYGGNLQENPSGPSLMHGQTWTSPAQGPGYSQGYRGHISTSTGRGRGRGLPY
# Sequence of Casein kinase I isoform alpha-like (Q8N752 whole entry, canonical isoform): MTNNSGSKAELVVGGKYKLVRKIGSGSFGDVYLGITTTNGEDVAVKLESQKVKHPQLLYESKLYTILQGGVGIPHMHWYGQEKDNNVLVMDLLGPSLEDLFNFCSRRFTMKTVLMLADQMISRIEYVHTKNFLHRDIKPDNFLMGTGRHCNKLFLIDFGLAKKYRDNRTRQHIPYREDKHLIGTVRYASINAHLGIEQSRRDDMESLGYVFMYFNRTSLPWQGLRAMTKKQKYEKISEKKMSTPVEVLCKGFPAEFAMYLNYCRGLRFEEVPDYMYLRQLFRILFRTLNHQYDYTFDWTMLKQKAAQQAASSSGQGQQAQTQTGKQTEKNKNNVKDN
# Sequence of Cyclin-dependent kinase 1 (P06493 whole entry): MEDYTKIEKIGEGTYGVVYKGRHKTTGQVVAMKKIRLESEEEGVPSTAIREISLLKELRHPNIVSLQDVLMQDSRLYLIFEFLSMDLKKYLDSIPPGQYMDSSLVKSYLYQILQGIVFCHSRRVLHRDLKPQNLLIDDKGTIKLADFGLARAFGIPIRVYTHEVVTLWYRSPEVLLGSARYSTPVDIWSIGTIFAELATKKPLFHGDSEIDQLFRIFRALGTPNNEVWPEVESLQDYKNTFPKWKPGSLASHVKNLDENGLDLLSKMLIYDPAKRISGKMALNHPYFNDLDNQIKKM
structure (smiles),measurement,setting,value
CN1C(=O)[C@@H](N2CCc3c(nn(Cc4ccccc4)c3Br)C2=O)COc2ccccc21 [TP-030-2],Ki,[1]; read-out: Ki,2070 nM
same,Ki,[1]; read-out: pKi (converted),2040 nM
same,inhibition,Rattus norvegicus,0%
same,IC50,[2],100 nM (active)
same,inhibition,[3],-2%
same,IC50,[4],1000 nM
same,IC50,[5],1000 nM
same,IC50,[6],1000 nM
same,IC50,[7],1000 nM
same,IC50,[8],1000 nM
same,IC50,[9],1000 nM
same,IC50,[10],1000 nM
same,IC50,[11],1000 nM
same,IC50,Ephrin type-B receptor 1,1000 nM
same,IC50,[12],1000 nM
same,IC50,[13],1000 nM
same,IC50,Rhodopsin kinase GRK1,1000 nM
same,IC50,[14],1000 nM
same,IC50,[15],1000 nM
same,IC50,[16],1000 nM
same,IC50,[17],1000 nM
same,IC50,[18],1000 nM
same,IC50,[19],1000 nM
same,IC50,[20],1000 nM
same,IC50,[21],1000 nM
same,IC50,[22],1000 nM
same,IC50,[23],1000 nM
same,IC50,[24],1000 nM
same,IC50,[25],1000 nM
same,IC50,[26],1000 nM
same,IC50,[27],1000 nM
same,IC50,[28],1000 nM
same,IC50,[29],1000 nM
same,IC50,[30],1000 nM
same,IC50,TGF-beta receptor type-2,1000 nM
same,IC50,Activated CDC42 kinase 1,1000 nM
same,IC50,Wee1-like protein kinase,1000 nM
same,IC50,[31],1000 nM
same,inhibition,[32],2.4%
same,inhibition,[33],3.31%
same,inhibition,[34],8.9%
same,inhibition,[35],1.23%
same,inhibition,[36],9.18%
same,inhibition,[37],5.52%
same,inhibition,[38],-8%
same,inhibition,[39],27%
same,inhibition,[40],35%
